Earlier results in patent US20250222014A1, “COMPOSITION FOR LOCALIZED FAT REDUCTION WITHOUT PAIN, EDEMA AND SIDE EFFECTS AND METHOD OF ADMINISTRATION THEREOF” (AMI PHARM CO., LTD., priority 2024, published 2025).

System: adipocytes (3T3L1 adipocytes), normal fibroblasts, vascular endothelial cells and skeletal muscle cells
Conditions: Gupta, Aest Plast Sur, 33:346-352, 2009

In the case of `C[C@H](CCC(=O)O)[C@H]1CC[C@H]2[C@@H]3CC[C@@H]4C[C@H](O)CC[C@]4(C)[C@H]3C[C@H](O)[C@]12C` [DCA, (4R)-4-[(3R,5R,8R,9S,10S,12S,13R,14S,17R)-3,12-dihydroxy-10,13-dimethyl-2,3,4,5,6,7,8,9,11,12,14,15, 16,17-tetradecahydro-1H-cyclopenta[a]phenanthren-17-yl] pentanoic acid], the “cell lysis selectivity (cell-lytic rather than fat-dissolving)” value is given as “non-selectively dissolves not only adipocytes (3T3L1 adipocytes) but also normal fibroblasts, vascular endothelial cells and skeletal muscle cells”.
